From patent US4105668A, “Process for 6-amino-2,2-dimethyl-3-(5-tetrazolyl)penam” (Pfizer Inc., priority 1977, dated 1978)
Values after ≈ are worked out from the molar mass of the structure shown. One block for each molecule: values may come before it.

Legend:
Staphylococcus aureus [1] = assay: In vitro antibacterial activity (MIC), two-fold serial dilution in Brain-Heart Infusion broth; format: cell-based; conditions: S. aureus, overnight
Experimental: (§1) The broth is inoculated with the bacterial culture, and with the test compound, and then it is incubated overnight. On the next day, the test is read visually. The minimum inhibitory concentration (MIC) is the lowest concentration of compound which prevents turbidity, i.e., which prevents growth of the microorganism. In vitro activities against certain pathogenic bacteria area shown in Table I. This in vitro activity makes the compound of value for topical applications, for example, in the form of creams and ointments, and for the sterilization of sickroom and hospital surfaces, equipment and the like. […] This in vivo activity makes this compound suitable for the control of bacterial infections caused by susceptible organisms, in mammals, including man, by both the oral and parenteral mode of administration.

Streptococcus pyogenes = assay: as above; format: cell-based; conditions: S. pyogenes, overnight
Experimental: as §1

Escherichia coli [2] = assay: as above; format: cell-based; conditions: E. coli, overnight
Experimental: as §1

Escherichia coli [3] = assay: In vivo antibacterial activity, protection of mice against systemic infection (lethal intraperitoneal inoculum); conditions: infected mice, multiple dosing
Staphylococcus aureus [4] = assay: as above; conditions: infected mice, multiple dosing
[5] = system: Staphylococcus aureus or Escherichia coli; assay: In vivo antibacterial activity in infected mice (statement in words); conditions: SC and PO
Experimental: as §1

[6] = system: gram-positive and gram-negative bacteria; assay: In vitro activity against gram-positive and gram-negative bacteria; format: cell-based
Experimental: as §1

Isoelectric point = format: physicochemical; conditions: in water

SMILES: CC1(C)S[C@@H]2[C@H](NC(=O)[C@H](N)c3ccc(O)cc3)C(=O)N2[C@H]1c1nn[nH]n1 [6-(D-2-Amino-2-[4-hydroxyphenyl]acetamido)-2,2-dimethyl-3-(5-tetrazolyl)penam]
MIC (Staphylococcus aureus [1]): 6 ng/mL (≈ 0.0154 µM)
MIC (Streptococcus pyogenes): 1 ng/mL (≈ 0.00257 µM)
MIC (Escherichia coli [2]): 0.78 µg/mL (≈ 2 µM)
Percentage protection E. coli (Escherichia coli [3]; 25 mg./kg. SC): 80%
Percentage protection E. coli (Escherichia coli [3]; 50 mg./kg. SC): 100%
Percentage protection E. coli (Escherichia coli [3]; 200 mg./kg. PO): 100%
Percentage protection S. Aureus (Staphylococcus aureus [4]; 6 mg./kg. SC): 50%
Percentage protection S. Aureus (Staphylococcus aureus [4]; 12 mg./kg. SC): 50%
Percentage protection S. Aureus (Staphylococcus aureus [4]; 25 mg./kg. SC): 70%
Percentage protection S. Aureus (Staphylococcus aureus [4]; 50 mg./kg. SC): 80%
antibacterial activity in vivo [5]: active as an antibacterial agent in vivo
activity against a wide variety of gram-positive and gram-negative bacteria [6]: shows activity against a wide variety of gram-positive and gram-negative bacteria

isoelectric point (Isoelectric point): ~4.1 pH
SMILES: CC1(C)S[C@@H]2[C@H](N)C(=O)N2[C@H]1c1nn[nH]n1 [6-amino-2,2-dimethyl-3-(5-tetrazolyl)penam]
